Entries after “also recorded” stand apart in the source; their conditions may differ. One block for each compound: values may come before it.
How the values were obtained:
[1] = system: immortalized human corneal epithelial cell line (HCE-S); assay: Cell toxicity test in corneal epithelial cells; format: cell-based; settings: compared with 3-oxo-C12 HSL and Benzalkonium chloride (BAK)
Experimental: (§1) HCE-S cells (Immortalized Human Corneal Epithelial Cells) were cultured as a monolayer in 90% DMEM supplemented with 10% heat inactivated FBS and penicillin-streptomycin (100 U/mL). Cells were cultured at 37° C. in a humidified incubator with 5% CO2 and growth medium was replaced every three days. HCE-S populations were grown to 80% confluence before passage to 20% using 0.25% Trypsin-EDTA. Prior to each experiment cell populations were estimated using a haemocytometer and trypan blue exclusion assay.

Aqueous solubility = format: physicochemical
[2] = system: HCE-S transwell barrier model; assay: HCE-S transwell barrier: transcytosis of model drugs; format: cell-based, human; settings: pre-treatment of HCE-S for 2 h with 300 μM
Experimental: (§2) HCE-S barrier models for transcytosis assays were prepared using an adaptation of a previously described method (Reichl (2008)). HCE-S cells (5×10^4 cells/well) were seeded on transwell inserts (polycarbonate, 3 μm pore size, 1.13 cm^2) and maintained for 7 days refreshing the medium in the apical and basal chambers every second day. After this time cells were cultured for a further 10 days at an apical air interface to encourage development of a multilayer barrier. Prior to each experiment culture medium was replaced with phenol red free DMEM and barrier integrity measured via transepithelial resistance (TER). […]
FIGS. 21A-21D and FIGS. 22Ai-22Biii. Baseline TER was recorded before addition of […] 3-OH-C12 HSL in micelles (assuming 100% drug loading) or equivalent concentrations of micelles only (vehicle control) dissolved in phenol-red free culture medium for 2 h. After this time, TER was recorded before culture medium was replaced with fresh. To the apical chamber, a model drug molecule (FITC-dextran or Avastin) was added and the concentration of this agent in the basolateral chamber was measured either by monitoring FITC fluorescence (FITC-dextran) versus a standard curve of known concentrations or using a commercially available Avastin sandwich ELISA kit as previously described (Davis et al. (2014)). […]

[3] = compared with 3-oxo-C12 HSL; cited from earlier work
HCE-S tight junctions = assay: HCE-S transwell barrier: transepithelial resistance (TER); format: cell-based, human; settings: 2 h exposure, up to 300 μM 3-OH-C12 HSL
Experimental: as §1
as §2, with “After this time cells were cultured for a further 10 days at an apical air interface to encourage development of a multilayer barrier.” left out
FIGS. 21A-21D and FIGS. 22Ai-22Biii. Baseline TER was recorded before addition of […] 3-OH-C12 HSL in micelles (assuming 100% drug loading) or equivalent concentrations of micelles only (vehicle control) dissolved in phenol-red free culture medium for 2 h. After this time, TER was recorded before culture medium was replaced with fresh. […]

[4] = system: RGC in OHT Dark Agouti (DA) rats; format: in vivo; settings: topical eye drops from two days prior to induction, three weeks, versus OHT only
[5] = topical formulation, Sigurdsson et al; cited from earlier work
[6] = system: New Zealand albino male rabbits (eye); settings: known; rabbits and humans; cited from earlier work

Compound: CCCCCCCCCC(O)CC(=O)NC1CCOC1=O (centres unmarked) [3-OH-C12 HSL, 3-hydroxydodecanoyl homoserine lactone]
cell toxicity (tolerability) [1]: better tolerated
water solubility (Aqueous solubility): low water solubility
transcytosis of 40 kDa FITC Dextran [2]: significantly enhanced
transcytosis of 149 kDa Avastin [2]: significantly enhanced
resistance to hydrolysis [3]: higher resistance to hydrolysis
disruption of tight junctions (TER, percentage of control) (HCE-S tight junctions): reversible disruption of Tight junctions

Compound: COc1cc(/C=C/C(=O)CC(=O)/C=C/c2ccc(O)c(OC)c2)ccc1O [FC]
RGC density / RGC loss (neuroprotective effect) [4]: did not have this effect; also recorded: no significant protective effect; also recorded: not FC treatment, significantly reduced RGC loss

solubility in distilled water (Aqueous solubility; 2 mg/mL curcumin): very poorly soluble
Compound: COc1cc(C=CC(=O)CC(=O)C=Cc2ccc(O)c(OC)c2)ccc1O [curcumin, 1,7-bis-(4-hydroxy-3-methoxyphenyl)-1,6-heptadiene-3,5-dione]

Compound: C[C@@H]1C[C@H]2[C@@H]3CCC4=CC(=O)C=C[C@]4(C)[C@@]3(F)[C@@H](O)C[C@]2(C)[C@@]1(O)C(=O)CO [dexamethasone]
entry into the retina by systemic absorption route [5]: 40%
entry into the retina via topical penetration [5]: 60%

Compound: Benzalkonium chloride [BAK]
ocular irritation [6]: potent ocular irritation

Source: patent US20250332101A1, “Composition” (priority 2018, published 2025)
